Laboratory results reported in ChEMBL document CHEMBL4138063, “Discovery of Decamidine as a New and Potent PRMT1 Inhibitor” (Medchemcomm, 2017).
Active and inactive are the calls of the source. No cut-off for these calls is given here.

Assays:
[1] = target: T1, Protein arginine N-methyltransferase 5 (Homo sapiens, UniProt O14744); experiment: Inhibition of PRMT5 (unknown origin) assessed as reduction in methyl transfer from [3H]-SAM to biotinylated histone H4 peptide H4-20-Biotin at 100 uM pre-incubated for 3 mins before [3H]-SAM addition and measured after 45 mins by scintillation proximity assay
T1 sequence (O14744 whole entry): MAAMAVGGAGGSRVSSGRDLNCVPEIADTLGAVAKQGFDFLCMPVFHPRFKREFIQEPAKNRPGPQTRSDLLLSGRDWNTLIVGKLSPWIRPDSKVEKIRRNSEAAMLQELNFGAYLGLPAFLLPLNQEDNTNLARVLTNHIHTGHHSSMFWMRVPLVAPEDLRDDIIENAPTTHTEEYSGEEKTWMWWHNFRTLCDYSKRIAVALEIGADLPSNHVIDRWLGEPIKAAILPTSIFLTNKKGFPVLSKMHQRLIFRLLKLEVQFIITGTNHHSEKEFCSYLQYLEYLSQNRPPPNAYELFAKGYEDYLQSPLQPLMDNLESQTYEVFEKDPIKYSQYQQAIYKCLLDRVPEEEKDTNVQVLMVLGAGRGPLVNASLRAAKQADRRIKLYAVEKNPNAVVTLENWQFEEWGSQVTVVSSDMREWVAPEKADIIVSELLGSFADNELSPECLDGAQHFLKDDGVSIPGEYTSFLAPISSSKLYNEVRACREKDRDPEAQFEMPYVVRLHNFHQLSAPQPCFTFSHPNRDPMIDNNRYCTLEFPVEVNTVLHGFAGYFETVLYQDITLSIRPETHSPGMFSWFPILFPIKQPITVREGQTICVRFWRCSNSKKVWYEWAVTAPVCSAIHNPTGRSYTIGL

[2] = target: T1, Protein arginine N-methyltransferase 5; experiment: Inhibition of PRMT5 (unknown origin) assessed as reduction in methyl transfer from [3H]-SAM to biotinylated histone H4 peptide H4-20-Biotin at 10 uM pre-incubated for 3 mins before [3H]-SAM addition and measured after 45 mins by scintillation proximity assay
[3] = target: Protein arginine N-methyltransferase 1 (Homo sapiens, UniProt Q99873); experiment: Inhibition of PRMT1 (unknown origin) assessed as reduction in methyl transfer from [3H]-SAM to biotinylated histone H4 peptide H4-20-Biotin at 10 uM pre-incubated for 3 mins before [3H]-SAM addition and measured after 15 mins by scintillation proximity assay
Protein arginine N-methyltransferase 1, sequence (Q99873 whole entry): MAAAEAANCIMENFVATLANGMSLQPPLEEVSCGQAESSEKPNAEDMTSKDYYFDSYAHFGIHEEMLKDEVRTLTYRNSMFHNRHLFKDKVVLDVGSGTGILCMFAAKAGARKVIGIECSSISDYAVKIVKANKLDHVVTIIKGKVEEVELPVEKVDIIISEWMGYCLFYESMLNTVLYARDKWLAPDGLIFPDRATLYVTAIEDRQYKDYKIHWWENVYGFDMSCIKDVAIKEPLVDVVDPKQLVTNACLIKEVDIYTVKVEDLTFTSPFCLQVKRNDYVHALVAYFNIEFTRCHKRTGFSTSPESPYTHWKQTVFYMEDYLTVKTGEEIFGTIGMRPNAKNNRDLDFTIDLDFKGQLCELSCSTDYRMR

[4] = target: T1, Protein arginine N-methyltransferase 5; experiment: Inhibition of PRMT5 (unknown origin) assessed as reduction in methyl transfer from [3H]-SAM to biotinylated histone H4 peptide H4-20-Biotin pre-incubated for 3 mins before [3H]-SAM addition and measured after 45 mins by scintillation proximity assay

## N=C(N)c1ccc(OC/C=C/COc2ccc(C(=N)N)cc2)cc1
[1]
  inhibition: inactive
[2]
  inhibition: inactive

## N=C(N)c1ccc(-c2ccc(-c3ccc(C(=N)N)cc3)o2)cc1 [FURAMIDINE]
[1]
  inhibition: 50%
[3]
  IC50: 22 µM
[4]
  IC50: 256 µM

## N=C(N)c1ccc(/C=C/c2ccc(C(=N)N)cc2)cc1 [STILBAMIDINE]
[4]
  IC50: 712 µM

## N=C(N)c1ccc(OCCCCCCOc2ccc(C(=N)N)cc2)cc1 [HEXAMIDINE]
[1]
  inhibition: inactive
[2]
  inhibition: inactive
[4]
  IC50: 357 µM

## N=C(N)c1ccc(Oc2ccc(C(=N)N)cc2)cc1
[1]
  inhibition: inactive
[2]
  inhibition: inactive

## CC(CCCOc1ccc(C(=N)N)cc1)Oc1ccc(C(=N)N)cc1 (configuration not stated)
[1]
  inhibition: inactive
[2]
  inhibition: inactive

## N=C(N)c1ccc(OCCOc2ccc(C(=N)N)cc2)cc1
[1]
  inhibition: inactive
[2]
  inhibition: inactive

## N=C(N)c1ccc(OCCCCOc2ccc(C(=N)N)cc2)cc1
[1]
  inhibition: inactive
[2]
  inhibition: inactive

## N=C(N)c1ccc(OCOc2ccc(C(=N)N)cc2)cc1
[1]
  inhibition: 50%

## N=C(N)c1ccc(OCCCOc2ccc(C(=N)N)cc2)cc1
[1]
  inhibition: inactive
[2]
  inhibition: inactive

## N=C(N)c1ccc(OCCCCCCCCCCOc2ccc(C(=N)N)cc2)cc1
[1]
  inhibition: 50%
[4]
  IC50: 43 µM
